Assay results as given in US20250302788A1, “COMPOSITION COMPRISING CREATINE FOR USE IN THE TREATMENT OF POST VIRAL FATIGUE SYNDROME” (Alzchem Trostberg GmbH, priority 2022, published 2025).
Where two headings read alike, the source gives them in different places.

Key:
[1] = test system: PCFS patients; assay: MFI-20 fatigue test, Example 3; type: in vivo, human
[2] = test system: PCFS patients; type: in vivo, human
[3] = test system: PCFS patients; assay: Incremental treadmill test until exhaustion, Example 3; type: in vivo, human
Method: In addition the time to exhaustion of the patients was evaluated by an incremental test until exhaustion on a motorized treadmill.

[4] = both, human, in vivo

For `O=C[C@H](O)[C@@H](O)[C@H](O)[C@H](O)CO` [Glucose, glucose, reference compound], the “General fatigue (MFI-20 score)” value ([1]; 8 weeks) was 11.6, the “Mental fatigue (MFI-20 score)” value ([1]; 8 weeks) was 11.0 and the “Physical fatigue (MFI-20 score)” value ([1]; 8 weeks) was 12.6. For the same compound, the “Reduced activity (MFI-20 score)” value ([1]; 8 weeks) was 12.6, the “Reduced motivation (MFI-20 score)” value ([1]; 8 weeks) was 10.8 and the “General fatigue (MFI-20 score)” value ([1]; Baseline) was 12.0. For the same compound, the “Mental fatigue (MFI-20 score)” value ([1]; Baseline) was 11.4, the “Physical fatigue (MFI-20 score)” value ([1]; Baseline) was 12.8 and the “Reduced activity (MFI-20 score)” value ([1]; Baseline) was 12.6. For the same compound, the “Reduced motivation (MFI-20 score)” value ([1]; Baseline) was 10.0, the “Ageusia (VAS scale)” value ([2]; 8 weeks) was 0.6 and the “Anosmia (VAS scale)” value ([2]; 8 weeks) was 1.0. The “Concentrating difficulties (VAS scale)” value ([2]; 8 weeks) was 3.0, the “Headache (VAS scale)” value ([2]; 8 weeks) was 2.8 and the “Malaise (VAS scale)” value ([2]; 8 weeks) was 3.0. The “Ageusia (VAS scale)” value ([2]; Baseline) was 2.2, the “Anosmia (VAS scale)” value ([2]; Baseline) was 2.6 and the “Concentrating difficulties (VAS scale)” value ([2]; Baseline) was 4.4. For the same compound, the “Headache (VAS scale)” value ([2]; Baseline) was 3.8, the “Malaise (VAS scale)” value ([2]; Baseline) was 4.6 and the Time to exhaustion ([3]; 8 weeks) was 908 s. For the same compound, the Time to exhaustion ([3]; Baseline) was 915 s, the “Change of time to exhaustion” value ([3]; post-administration (8 weeks) vs baseline) was -7 s and the “Total creatine, Left frontal grey matter” value [4] was 6.8 ± 0.4 mM. For the same compound, the “Total creatine, Left frontal white matter” value [4] was 5.8 ± 0.4 mM, the “Total creatine, Left mesial grey matter” value [4] was 7.6 ± 0.7 mM and the “Total creatine, Left paracentral grey matter” value [4] was 7.0 ± 0.9 mM. For the same compound, the “Total creatine, Left parietal white matter” value [4] was 5.4 ± 0.6 mM, the “Total creatine, Left precentral white matter” value [4] was 5.6 ± 0.6 mM and the “Total creatine, Right frontal grey matter” value [4] was 7.0 ± 0.9 mM. The “Total creatine, Right frontal white matter” value [4] was 5.6 ± 0.8 mM, the “Total creatine, Right mesial grey matter” value [4] was 7.3 ± 0.6 mM and the “Total creatine, Right paracentral grey matter” value [4] was 6.4 ± 0.7 mM. The “Total creatine, Right parietal white matter” value [4] was 5.2 ± 0.7 mM, the “Total creatine, Right precentral white matter” value [4] was 5.4 ± 0.6 mM and the “Total creatine, Thalamus” value [4] was 5.5 ± 0.5 mM. The “Total creatine, Vastus medialis muscle” value [4] was 30.1 ± 12.7 mM, the “Total creatine, Left frontal grey matter” value ([4]; 8 weeks) was 6.3 ± 0.9 mM and the “Total creatine, Left frontal white matter” value ([4]; 8 weeks) was 5.6 ± 1.0 mM. For the same compound, the “Total creatine, Left mesial grey matter” value ([4]; 8 weeks) was 7.4 ± 0.6 mM, the “Total creatine, Left paracentral grey matter” value ([4]; 8 weeks) was 6.9 ± 0.7 mM and the “Total creatine, Left parietal white matter” value ([4]; 8 weeks) was 5.3 ± 0.5 mM. For the same compound, the “Total creatine, Left precentral white matter” value ([4]; 8 weeks) was 5.6 ± 0.5 mM, the “Total creatine, Right frontal grey matter” value ([4]; 8 weeks) was 7.0 ± 0.7 mM and the “Total creatine, Right frontal white matter” value ([4]; 8 weeks) was 5.6 ± 0.8 mM. For the same compound, the “Total creatine, Right mesial grey matter” value ([4]; 8 weeks) was 7.0 ± 1.0 mM, the “Total creatine, Right paracentral grey matter” value ([4]; 8 weeks) was 6.2 ± 1.1 mM and the “Total creatine, Right parietal white matter” value ([4]; 8 weeks) was 5.2 ± 0.7 mM. The “Total creatine, Right precentral white matter” value ([4]; 8 weeks) was 5.3 ± 0.7 mM, the “Total creatine, Thalamus” value ([4]; 8 weeks) was 5.5 ± 0.7 mM and the “Total creatine, Vastus medialis muscle” value ([4]; 8 weeks) was 28.5 ± 9.2 mM.
